Columns and labels:
[1] = test system: 40 human urothelial (bladder) cancer cell lines; assay: Alamar Blue growth inhibition of 40 bladder cancer cell lines, single drugs, 72 hours; format: cell-based; settings: for criterion dose (CR): minimum dose at which at least 25% of cell lines showed growth inhibition >50%; for number of resistant cell lines / number of sensitive cell lines: of 40 bladder cancer cell lines; for number of sensitive cell lines: log10(GI50) ≤ CR
Protocol: The human bladder cancer cell lines and the respective growth conditions used in this study have been previously described (6, 7). Cisplatin was purchased from Sigma (St. Louis, Mo.), dissolved in Dulbecco's phosphate-buffered saline, and aliquoted in 1 mg/ml stocks. Paclitaxel was purchased from Sigma (St. Louis, Mo.), dissolved in Dimethyl Sulphoxide (DMSO), and aliquoted in 1 mM stocks. Gemcitabine was purchased from the University of Virginia Medical Center Pharmacy, dissolved in PBS, and aliquoted in 0.1 M stocks. Cell lines were maintained in appropriate media, in a humidified atmosphere containing 5% CO2 in air, except CRL2169 (SW780) which requires no CO2 for its growth. Cell lines were subcultured in an aqueous solution of 0.05% trypsin (Difco, 1:250) and 0.016% EDTA. Each cell line was used within 10 passages from its archival passage number in order to minimize any long term cell culture effects. Gene expression analysis of bladder cell lines was carried out as previously described using the HG-U133A GeneChip® array (Affymetrix®, Santa Clara, Calif., USA) (6, 7). The image file was analyzed with RMA, to obtain the expression intensity values of the microarray data (8).
Cell lines were seeded in 96-well cell culture plates (Costar) at a density of 1000 cells/well. 24 hours later, cells were exposed to the drugs diluted in RPMI-1640 medium, containing 10% FBS, concentration that is required by more than 75% of cell lines for their normal growth, at a total volume of 200 μL. Each drug dose was plated in triplicate, and the experiment was repeated four to seven times. The doses for Cisplatin were 200, 400, 800, 1600, 3200, and 6400 ng/ml; for Paclitaxel 0.0001, 0.001, 0.002, 0.005, 0.01, and 0.1 μM; for Gemcitabine 0.001, 0.01, 0.1, 1, 10, 100 μM.
From the dose-response data, log 10(GI50) values (log base 10 of concentration required to inhibit cell growth by 50% in comparison with untreated control) were estimated for all the cell lines by deriving log(dose) concentration curves on cell count percents as described below. To estimate the GI50 values reliably, we computed Euclidean distances among all replicated experiments, and excluded outlying experiments if they were in the top 20% among all measured distances. This percent was determined heuristically based on the general observations in experimental quality control. […] Subsequently, the data were fitted to a sigmoidal function such as the following nonlinear regression model for estimating each cell line's dose response curve:
Percent=1−1/(1+exp(−(log 10(dose)−β)/α),
where α and β determine the shape of a fitted line.
This sigmoidal regression function was used to capture the natural shapes of drug dose responses. Thus, the estimated β is the predicted log 10(GI50) value, the expected log concentration achieving the cell count reduction of 50%. Similarly, log 10(GI30), and log 10(GI70) values, i.e. the concentrations required to inhibit cell growth by 30%, and 70% in comparison with untreated control, were also calculated.
Cell line drug sensitivity was classified using the GI estimates and application of a criterion dose (CR) concept. […] Using these CR concentrations, each cell line was defined as sensitive if log 10(GI50)≦CR; strongly sensitive if […], or resistant if log 10(GI70)>CR, and intermediate if log 10(GI50)>CR and log 10(GI70)<CR.
To approach the development of molecular models of chemotherapeutic sensitivity in human bladder cancer, we focused on a well-defined series of 40 urothelial cell lines for which we could measure sensitivity to relevant chemotherapeutic agents in vitro and correlate these responses with global measurements of gene expression.

[2] = test system: BLA-40 human bladder cancer cell lines; assay: In vitro growth inhibition (GI50) in BLA-40 cells, 48 hours, as for NCI-60; format: cell-based; settings: for potency in BLA-40 compared with NCI-60 tissue panels: BLA-40 vs nine tissue-specific panels of NCI-60
Excerpt: Sensitivity of human bladder cancer cells to cisplatin, paclitaxel and NSC 637993. To test the predictive models, we performed in vitro drug response experiments, and then determined GI50 values for each bladder cell line for cisplatin, paclitaxel, and compound NSC 637993 (Supplementary Materials and Methods). Sensitivity to the agents was generated by a dose response experiments carried out on the BLA-40 cells as described for the NCI-60. The final concentrations of cisplatin used were 200, 400, 800, 1600, 3200, and 6400 ng/ml; those of Paclitaxel and NSC 637993 were 0.1, 1, 2, 5, 10, and 100 nM. In each case, the cells were plated on Day 0, exposed to drug for 48 hours) at 37° C., and then assayed. Each experiment was repeated three to five independent times, and the results were expressed as a fraction of the difference between initial cell count and untreated control. Log 10(GI50) values were then estimated from the resulting dose-response curves. Bladder cell lines were defined as sensitive or resistant as described above for the NCI-60 panel. […]
In the first application of the COXEN algorithm, for example, Cell Sets 1 and 2 were the NCI-60 and BLA-40 cell panels, respectively; the Step 1 drug activities were those assessed by DTP in the NCI-60 using a 48-hour sulforhodamine B assay; the “molecular characteristic” in Steps 2 and 4 was transcript expression level, as assessed using Affymetrix HG-U133A microarrays; the algorithm in Step 3 was “Significance Analysis of Microarrays (SAM)” or two-sample t-test; Step 5 was a novel “co-expression extrapolation” algorithm; Step 6 was another novel algorithm, “Misclassification-Penalized Posterior” (MiPP), which we recently introduced for selection of the best mathematical “models” for the prediction; and applying the prediction models obtained in Step 6, independent testing of the predictions on BLA-40 cells was performed, mimicking the way the assay for the NCI-60 by DTP.

[3] = test system: estrogen receptor-positive breast cancer patients; assay: TAM-60 breast cancer clinical trial, time to recurrence classification; format: in vivo, human; settings: of 60 patients
Protocol: In the tamoxifen clinical trial (TAM-60), 60 postmenopausal breast cancer patients with estrogen receptor-positive tumors were treated and followed for up to 180 months. Genome-wide expression profiling was performed on the primary tumors using a customized cDNA microarray platform.

breast cancer patients = settings: 24 patients, four cycles of neoadjuvant docetaxel, original study; cited from earlier work
breast cancer = settings: cited from earlier work
bladder cancer = settings: cited from earlier work

SMILES	criterion dose (CR) [1]	number of resistant cell lines [1]	number of sensitive cell lines [1]	further results
CC(=O)O[C@H]1C(=O)[C@@]2(C)[C@H]([C@H](OC(=O)c3ccccc3)[C@]3(O)C[C@H](OC(=O)[C@H](O)[C@@H](NC(=O)c4ccccc4)c4ccccc4)C(C)=C1C3(C)C)[C@]1(OC(C)=O)CO[C@@H]1C[C@@H]2O [Paclitaxel]	0.005 µM	11	17	–
Nc1ccn([C@@H]2O[C@H](CO)[C@@H](O)C2(F)F)c(=O)n1 [Gemcitabine]	0.1 µM	11	8	–
CCN(CC)CCNc1ccc2nc(C)n3c4ccc(OC)cc4c(=O)c1c23 [NSC 637993]	–	–	–	proportion of BLA-40 cell types with GI50 less than 10-6M ([2]; BLA-40 panel): > 60%; potency in BLA-40 compared with NCI-60 tissue panels [2]: more effective at a lower dose (1×10^−6M) in bladder cancer; potency in BLA-40 compared with NCI-60 tissue panels ([2]; listed as NSC637993): more potent overall in the BLA-40 bladder cancers than in any of the organ-of-origin types included in the NCI-60
CC/C(=C(\c1ccccc1)c1ccc(OCCN(C)C)cc1)c1ccccc1 [tamoxifen]	–	–	–	number of non-responders (recurrence <50 months) [3]: 16; number of responders (long-term survival >130 months) [3]: 11
N.N.[Cl][Pt][Cl] [cisplatin]	400 ng/mL	11	16	–
CC(=O)O[C@@]12CO[C@@H]1C[C@H](O)[C@@]1(C)C(=O)[C@H](O)C3=C(C)[C@@H](OC(=O)[C@H](O)[C@@H](NC(=O)OC(C)(C)C)c4ccccc4)C[C@@](O)([C@@H](OC(=O)c4ccccc4)[C@H]21)C3(C)C [docetaxel]	–	–	–	number of non-responder patients (breast cancer patients): 13; number of responder patients (breast cancer patients): 11
O=c1[nH]cc(F)c(=O)[nH]1 [compound 19893]	–	–	–	Clinical response rate (breast cancer): 44.4; Clinical response (bladder cancer): 23.1

Reference: patent US20080118576A1, “PREDICTION OF AN AGENT'S OR AGENTS' ACTIVITY ACROSS DIFFERENT CELLS AND TISSUE TYPES” (priority 2006, published 2008)
